# Legend:
# galium [1] = test: Test D postemergence; format: in vivo, Galium aparine; conditions: scale 0 to 100
# Excerpt: (§1) Seeds of plant species selected from bluegrass (annual bluegrass, Poa annua), blackgrass (Alopecurus myosuroides), canarygrass (littleseed canarygrass, Phalaris minor), chickweed (common chickweed, Stellaria media), galium (catchweed bedstraw, Galium aparine), bromegrass, downy (downy bromegrass, Bromus tectorum), field poppy (Papaver rhoeas), field violet (Viola arvensis), foxtail, green (green foxtail, Setaria viridis), deadnettle (henbit deadnettle, Lamium amplexicaule), ryegrass, Italian (Italian ryegrass, Lolium multiflorum), kochia (Kochia scoparia), lambsquarters (Chenopodium album), oilseed rape (Brassica napus), pigweed (redroot pigweed, Amaranthus retroflexus), chamomile (scentless chamomile, Matricaria inodora), speedwell (bird's-eye speedwell, Veronica persica), barley, spring (spring barley, Hordeum vulgare), wheat, spring (spring wheat, Triticum aestivum), buckwheat, wild (wild buckwheat, Polygonum convolvulus), mustard, wild (wild mustard, Sinapis arvensis), oat, wild (wild oat, Avena fatua), radish, wild (wild radish, Raphanus raphanistrum), windgrass (Apera spica-venti), Russian thistle (Salsola kali), barley, winter (winter barley, Hordeum vulgare), and wheat, winter (winter wheat, Triticum aestivum) were planted into a silt loam soil and treated preemergence with test chemicals formulated in a non-phytotoxic solvent mixture which included a surfactant.
# (§2) At the same time, these species were planted in pots containing Redi-Earth® planting medium (Scotts Company, 14111 Scottslawn Road, Marysville, Ohio 43041) comprising spaghnum peat moss, vermiculite, wetting agent and starter nutrients and treated with postemergence applications of the test chemicals formulated in the same manner. Plants ranged in height from 2 to 18 cm (1- to 4-leaf stage). Treated plants and controls were maintained in a controlled growth environment for 14 to 21 days after which time all species were compared to controls and visually evaluated. Plant response ratings, summarized in Table D, are based on a scale of 0 to 100 where 0 is no effect and 100 is complete control. A dash (-) response means no test result.
# lambsquarters [2] = test: Test D postemergence; format: in vivo, Chenopodium album; conditions: scale 0 to 100
# Procedure, shortened: (§3)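 Scores of 0 (no effect) to 100 (complete control) come from visual comparison with untreated plants 14–21 days after spraying. Applications were made pre-emergence to silt loam or post-emergence to plants 2–18 cm tall.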
# lambsquarters [3] = test: Test F preemergence; format: in vivo, Chenopodium album
# Excerpt: (§4) Seeds of plant species selected from corn (Zea mays), soybean (Glycine max), velvetleaf (Abutilon theophrasti), lambsquarters (Chenopodium album), wild poinsettia (Euphorbia heterophylla), pigweed, palmer (palmer pigweed, Amaranthus palmeri), common waterhemp (Amaranthus rudis), surinam grass (Brachiaria decumbens), large crabgrass (Digitaria sanguinalis), crabgrass, Brazil (Brazilian crabgrass, Digitaria horizontalis), fall panicum (Panicum dichotomiflorum), giant foxtail (Setaria faberii), green foxtail (Setaria viridis), goosegrass (Eleusine indica), johnsongrass (Sorghum halepense), common ragweed (Ambrosia elation), barnyardgrass (Echinochloa crus-galli), southern sandbur (Cenchrus echinatus), arrowleaf sida (Sida rhombifolia), Italian ryegrass (Lolium multiflorum), dayflower, VA (Virginia (VA) dayflower, Commelina virginica), field bindweed (Convolvulus arvensis), cocklebur (common cocklebur, Xanthium strumarium), morningglory (Ipomoea coccinea), nightshade (eastern black nightshade, Solanum ptycanthum), kochia (Kochia scoparia), yellow nutsedge (Cyperus esculentus), and hairy beggarticks (Bidens pilosa), were planted into a silt loam soil and treated preemergence with test chemicals formulated in a non-phytotoxic solvent mixture which included a surfactant.
# (§5) At the same time, plants from these crop and weed species and also horseweed (Canada horseweed, Conyza canadensis), smartweed (ladysthumb smartweed, Polygonum persicaria), waterhemp_RES1, (ALS & Triazine resistant common waterhemp, Amaranthus rudis), and waterhemp_RES2, (ALS & HPPD resistant common waterhemp, Amaranthus rudis) were treated with postemergence applications of test chemicals formulated in the same manner. Plants ranged in height from 2 to 18 cm for postemergence treatments (1- to 4-leaf stage). Treated plants and controls were maintained in a greenhouse for 14 to 21 days, after which time all species were compared to controls and visually evaluated. Plant response ratings, summarized in Table F, are based on a scale of 0 to 100 where 0 is no effect and 100 is complete control. A dash (-) response means no test result.
# barnyardgrass = test: Test F preemergence; format: in vivo, Echinochloa crus-galli
# Excerpt: as §4, §5
# radish, wild = test: Test D postemergence; format: in vivo, Raphanus raphanistrum; conditions: scale 0 to 100
# Procedure, shortened: as §3
# buckwheat, wild = test: Test D postemergence; format: in vivo, Polygonum convolvulus; conditions: scale 0 to 100
# Excerpt: as §1, §2
# mustard, wild = test: Test D postemergence; format: in vivo, Sinapis arvensis; conditions: scale 0 to 100
# Procedure, shortened: as §3
# galium [4] = test: Test D preemergence; format: in vivo, Galium aparine; conditions: scale 0 to 100
# Procedure, shortened: as §3
# wheat, spring = test: Test D postemergence; format: in vivo, Triticum aestivum; conditions: scale 0 to 100
# Procedure, shortened: as §3
# wheat, winter = test: Test D postemergence; format: in vivo, Triticum aestivum; conditions: scale 0 to 100
# Procedure, shortened: as §3
# Italian ryegrass = test: Test F preemergence; format: in vivo, Lolium multiflorum
# Excerpt: as §4, §5
# soybean = test: Test F preemergence; format: in vivo, Glycine max
# Procedure, shortened: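 Greenhouse study; evaluation window 14–21 days post-treatment. Seedlings sprayed postemergence measured 2–18 cm, while preemergence treatments went on silt loam soil. Non-phytotoxic solvent mixture with surfactant served as vehicle; response assessed by eye, 0–100 scale.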
# foxtail, green = test: Test D postemergence; format: in vivo, Setaria viridis; conditions: scale 0 to 100
# Excerpt: as §1, §2
# wild poinsettia = test: Test F preemergence; format: in vivo, Euphorbia heterophylla
# Excerpt: as §4, §5
# [5] = Preemergence, 31 g ai/ha, scale 0 to 100
# [6] = Preemergence, 62 g ai/ha, scale 0 to 100
# [7] = Preemergence, 125 g ai/ha, scale 0 to 100
# [8] = preemergence, 8 g ai/ha, scale 0 to 100, 100 is complete control
# [9] = preemergence, 16 g ai/ha, scale 0 to 100, 100 is complete control
smiles,measurement,setting,value
"CCc1cc(C(=O)NCC(F)(F)F)nn1Cc1ccnc(C(F)(F)F)c1 [Compound 78, 5-ethyl-N-(2,2,2-trifluoroethyl)-1-[[(2-trifluoromethyl)-4-pyridinyl]methyl]-1H-pyrazole-3-carboxamide]",Galium plant response rating,"galium [1]; Postemergence, 31 g ai/ha",60
same,Galium plant response rating,"galium [1]; Postemergence, 125 g ai/ha",80
same,Galium plant response rating,"galium [1]; Postemergence, 250 g ai/ha",85
same,Galium plant response rating,"galium [1]; postemergence, 62 g ai/ha",70
same,Lambsquarters plant response rating,"lambsquarters [2]; Postemergence, 31 g ai/ha",20
same,Lambsquarters plant response rating,"lambsquarters [2]; Postemergence, 125 g ai/ha",80
same,Lambsquarters plant response rating,"lambsquarters [2]; Postemergence, 250 g ai/ha",80
same,Lambsquarters plant response rating,"lambsquarters [2]; postemergence, 62 g ai/ha",60
same,"Plant response rating, Lambsquarters",lambsquarters [3]; [5],100
same,"Plant response rating, Lambsquarters",lambsquarters [3]; [6],100
same,"Plant response rating, Lambsquarters",lambsquarters [3]; [7],100
same,"Plant response rating, Lambsquarters",lambsquarters [3]; [8],50
same,"Plant response rating, Lambsquarters",lambsquarters [3]; [9],65
same,"Plant response rating, Barnyardgrass",barnyardgrass; [5],35
same,"Plant response rating, Barnyardgrass",barnyardgrass; [6],98
same,"Plant response rating, Barnyardgrass",barnyardgrass; [7],100
same,"Plant response rating, Barnyardgrass",barnyardgrass; [8],0
same,"Plant response rating, Barnyardgrass",barnyardgrass; [9],25
same,"Radish, Wild plant response rating","radish, wild; Postemergence, 31 g ai/ha",40
same,"Radish, Wild plant response rating","radish, wild; Postemergence, 125 g ai/ha",60
same,"Radish, Wild plant response rating","radish, wild; Postemergence, 250 g ai/ha",75
same,"Radish, Wild plant response rating","radish, wild; postemergence, 62 g ai/ha",50
same,"Buckwheat, Wild plant response rating","buckwheat, wild; Postemergence, 31 g ai/ha",50
same,"Buckwheat, Wild plant response rating","buckwheat, wild; Postemergence, 125 g ai/ha",65
same,"Buckwheat, Wild plant response rating","buckwheat, wild; Postemergence, 250 g ai/ha",70
same,"Buckwheat, Wild plant response rating","buckwheat, wild; postemergence, 62 g ai/ha",60
same,"Mustard, Wild plant response rating","mustard, wild; Postemergence, 31 g ai/ha",40
same,"Mustard, Wild plant response rating","mustard, wild; Postemergence, 125 g ai/ha",90
same,"Mustard, Wild plant response rating","mustard, wild; Postemergence, 250 g ai/ha",90
same,"Mustard, Wild plant response rating","mustard, wild; postemergence, 62 g ai/ha",70
same,"Plant response rating, Galium",galium [4]; 31 g ai/ha,95
same,"Plant response rating, Galium",galium [4]; 62 g ai/ha,100
same,"Plant response rating, Galium",galium [4]; 125 g ai/ha,100
same,"Plant response rating, Galium",galium [4]; 250 g ai/ha,100
same,"Wheat, Spring plant response rating","wheat, spring; Postemergence, 31 g ai/ha",0
same,"Wheat, Spring plant response rating","wheat, spring; Postemergence, 125 g ai/ha",15
same,"Wheat, Spring plant response rating","wheat, spring; Postemergence, 250 g ai/ha",25
same,"Wheat, Spring plant response rating","wheat, spring; postemergence, 62 g ai/ha",5
same,"Wheat, Winter plant response rating","wheat, winter; Postemergence, 31 g ai/ha",10
same,"Wheat, Winter plant response rating","wheat, winter; Postemergence, 125 g ai/ha",25
same,"Wheat, Winter plant response rating","wheat, winter; Postemergence, 250 g ai/ha",55
same,"Wheat, Winter plant response rating","wheat, winter; postemergence, 62 g ai/ha",15
same,"Plant response rating, Italian Ryegrass",Italian ryegrass; [5],5
same,"Plant response rating, Italian Ryegrass",Italian ryegrass; [6],60
same,"Plant response rating, Italian Ryegrass",Italian ryegrass; [7],90
same,"Plant response rating, Italian Ryegrass",Italian ryegrass; [8],0
same,"Plant response rating, Italian Ryegrass",Italian ryegrass; [9],0
same,"Plant response rating, Soybean",soybean; [5],95
same,"Plant response rating, Soybean",soybean; [6],80
same,"Plant response rating, Soybean",soybean; [7],95
same,"Plant response rating, Soybean",soybean; [8],0
same,"Plant response rating, Soybean",soybean; [9],0
same,"Foxtail, Green plant response rating","foxtail, green; Postemergence, 31 g ai/ha",25
same,"Foxtail, Green plant response rating","foxtail, green; Postemergence, 125 g ai/ha",70
same,"Foxtail, Green plant response rating","foxtail, green; Postemergence, 250 g ai/ha",80
same,"Foxtail, Green plant response rating","foxtail, green; postemergence, 62 g ai/ha",60
same,"Plant response rating, Wild Poinsettia",wild poinsettia; [5],50
same,"Plant response rating, Wild Poinsettia",wild poinsettia; [6],65
same,"Plant response rating, Wild Poinsettia",wild poinsettia; [7],98
same,"Plant response rating, Wild Poinsettia",wild poinsettia; [8],0
same,"Plant response rating, Wild Poinsettia",wild poinsettia; [9],0

# From patent US20150105252A1, “SUBSTITUTED PYRAZOLES AS HERBICIDES” (E I DU PONT DE NEMOURS AND COMPANY, priority 2013, published 2015)
